Test results reported in publication PMC10906223 (JCI Insight, 2024).
Where “and” joins values, the source holds several entries; their conditions need not be identical. Equal entries are not always repeated.

What was measured:
[1] = test system: human donor dispersed islet cells; assay: Insulin secretion from healthy human donor dispersed islet cells; format: cell-based; set-up: Insulin secretion: unit not given here
Protocol: (§1) Pancreata of nondiabetic C57BL/6J mice were digested using collagenase P (Roche Diagnostics, catalog 11213873001), and islets were manually picked up using a stereomicroscope (ZEISS Stemi 305). […] Isolated mouse islets or provided human islets were dispersed as described ([28]). Briefly, 100–120 islets were washed 2 times using modified HBSS, then dispersed in 600 μL Accutase (Innovative Cell Technologies, catalog AT-104) by gently pipetting up and down for 7 minutes at 37°C. […] Following refreshing of KRBH, cells were dispensed in 8 microfuge tubes (2,000 cells/tube) and treated with WCDD301, preclustered Ephrin-A5 Fc, or preclustered Fc in the presence or absence of the competitive inhibitor of EphA4 receptor, rhyncophylline ([60]) (MilliporeSigma, catalog SML2345). In the presence or absence of these effectors, secretion assay was performed sequentially as shown in Supplemental Table 5. […] Preclustering of Ephrin-A5 Fc was done by mixing Ephrin-A5 Fc or Fc alone (BioLegend, catalog 790102) with anti-Fc antibody (Invitrogen, catalog A16086) (1:10 molar ratio) 20 minutes before treatment ([62]). […] Shedding of cleaved EphA4 was measured from the cell culture medium. Experiments were performed by dispersion of 200 islets, and EphA4 levels in media were measured by EphA4 ELISA (ABclonal, catalog RK06572).
(§2) The Integrated Islet Distribution Program provided us human donor islets with their characteristics (Supplemental Table 6). Islets were centrifuged at 500g for 3 minutes, resuspended in CMRL 1066 medium (Gibco, catalog 1150-037) containing 11 mM glucose, and rested in an incubator overnight.
(§3) For the hormone secretion assay, islets or dispersed islet cells were adapted in KRBH buffer containing 11 mM glucose for 1 hour. Then, after 2 washes in HBSS containing 11 mM glucose, islets or cells were treated in the following sequential order in the presence or absence of WCDD301: incubation in KRBH (1 mM glucose, 30 minutes) followed by medium collection, incubation in KRBH (11 mM glucose, 30 minutes) followed by medium collection.

[2] = Plasma stability assay, human plasma; format: in vitro ADME; settings: for Ln (% Remaining): human plasma, 37°C, Figure 5A
Protocol: Pooled frozen plasma of CD-1 mice (n = 20; catalog MSE00PLK2M2N, Beijing Vital River Laboratory Animal Technology) or humans (n = 6, catalog […]2P2N, Bioreclamation IVT), equal numbers of males and females, was thawed in a 37°C water bath, and residual clots were removed by centrifugation (500g for 5 minutes). Plasma (98 μL) was aliquoted in each well of 96-well reaction plates using an Apricot automation workstation. WCDD301 (100 μM) or propantheline bromide (100 μM, as a positive control) was added (2 μL/well) to sets of wells assigned to blank or time points (T0, T10, T30, T60, and T120 minutes) and incubated at 37°C. At each time point, the reaction was stopped by adding stop solution (500 μL; a mixture of 200 ng/mL of tolbutamide and labetalol in acetonitrile), mixed thoroughly, sealed, shaken (20 minutes), and centrifuged (1,750g, 4°C, 20 minutes). A total of 150 μL of the supernatant from each well of the reaction plate was transferred to its corresponding bioanalysis plate for LC-MS/MS analysis. The remaining level (%) of the WCDD301 was calculated using the following equation: remaining (%) = (PAR at each time point/PAR at T0) × 100. PAR stands for the peak area ratio of the WCDD301 versus internal standard.

[3] = test system: diabetic NOD mice; assay: Daily urine glucose in NOD mice; format: in vivo, mouse
Protocol: We preweighed WCDD301 into microfuge tubes and reconstituted it using deionized water. Using a 10 μL pipette tip, we placed the calculated dose of WCDD301 (at the volume range of 1–1.5 μL) within the center of pearls. WCDD301 was placed into pearls 30–45 minutes before administration. For oral administration of pearls, we designed an applicator using a disposable plastic transfer pipette and syringe plunger lubricated with olive oil. Food intake and body weight in each experimental group (diabetic WCDD301-treated, diabetic placebo-treated, and nondiabetic placebo-treated NOD mice) were monitored daily for 4 weeks. Urine glucose was measured from individually caged NOD mice (nondiabetic placebo treated n = 2, diabetic placebo treated n = 2, and diabetic WCDD301 treated n = 4, 21–23 weeks old) with metabolic cages. Urine glucose was monitored every 24 hours for 10 days by semiquantitative measurements (P-STICKS, Millpledge Veterinary).

[4] = test system: human donor dispersed islet cells; assay: Somatostatin secretion from non-diabetic human donor dispersed islet cells; format: cell-based
Protocol: as §1, §2, §3

[5] = Glucose (1 mM), WCDD301 0.75 µM
[6] = Glucose (11 mM), WCDD301 0.75 µM
[7] = Glucose (11 mM), WCDD301 1.5 µM

CC(=O)OCC(N)(COC(C)=O)COC(C)=O [WCDD301, 2-(acetoxymethyl)-2-aminopropane-1,3-diyl diacetate]
Effect on insulin secretion ([1]; 1, 3 or 6 hours exposure): transient effect | Insulin secretion ([1]; 1 hour exposure, WCDD301 0.75 µM, 1 mM (first group), Figure 2D): 0.23 and 0.21 and 0.2 | Insulin secretion ([1]; 1 hour exposure, WCDD301 0.75 µM, head printed 1 mM (second group c4-c7), Figure 2D): 0.277 and 0.233 and 0.25 | Insulin secretion ([1]; 1 hour exposure, WCDD301 1.5 µM, 1 mM (first group), Figure 2D): 0.247 and 0.17 and 0.22 | Insulin secretion ([1]; 1 hour exposure, WCDD301 1.5 µM, head printed 1 mM (second group c4-c7), Figure 2D): 0.299 and 0.278 and 0.26 | Insulin secretion ([1]; 1 hour exposure, WCDD301 3 µM, 1 mM (first group), Figure 2D): 0.133 and 0.134 and 0.23 | Insulin secretion ([1]; 1 hour exposure, WCDD301 3 µM, head printed 1 mM (second group c4-c7), Figure 2D): 0.196 and 0.199 and 0.27 | Insulin secretion ([1]; 3 hours exposure, WCDD301 0.75 µM, 1 mM (first group), Figure 2E): 0.188 and 0.216 and 0.2 | Insulin secretion ([1]; 3 hours exposure, WCDD301 0.75 µM, head printed 1 mM (second group c4-c7), Figure 2E): 0.279 and 0.305 and 0.31 | Insulin secretion ([1]; 3 hours exposure, WCDD301 1.5 µM, 1 mM (first group), Figure 2E): 0.156 and 0.166 and 0.2 | Insulin secretion ([1]; 3 hours exposure, WCDD301 1.5 µM, head printed 1 mM (second group c4-c7), Figure 2E): 0.227 and 0.252 and 0.3 | Insulin secretion ([1]; 3 hours exposure, WCDD301 3 µM, 1 mM (first group), Figure 2E): 0.23 and 0.247 and 0.22 | Insulin secretion ([1]; 3 hours exposure, WCDD301 3 µM, head printed 1 mM (second group c4-c7), Figure 2E): 0.249 and 0.253 and 0.31 | Insulin secretion ([1]; 6 hours exposure, WCDD301 0.75 µM, 1 mM (first group), Figure 2F): 0.248 and 0.23 and 0.252 | Insulin secretion ([1]; 6 hours exposure, WCDD301 0.75 µM, head printed 1 mM (second group c4-c7), Figure 2F): 0.383 and 0.391 and 0.37 | Insulin secretion ([1]; 6 hours exposure, WCDD301 1.5 µM, 1 mM (first group), Figure 2F): 0.257 and 0.265 and 0.24 | Insulin secretion ([1]; 6 hours exposure, WCDD301 1.5 µM, head printed 1 mM (second group c4-c7), Figure 2F): 0.41 and 0.395 and 0.38 | Insulin secretion ([1]; 6 hours exposure, WCDD301 3 µM, 1 mM (first group), Figure 2F): 0.185 and 0.176 and 0.25 | Insulin secretion ([1]; 6 hours exposure, WCDD301 3 µM, head printed 1 mM (second group c4-c7), Figure 2F): 0.327 and 0.324 and 0.4 | Insulin secretion (Supplemental Figure 4A; quantity not given) [1, 5]: 14.24 and 14.812 and 14.5 | Insulin secretion (Supplemental Figure 4B; quantity not given) [1, 5]: 12.664 and 13.794 and 14 | Insulin secretion (Supplemental Figure 4C; quantity not given) [1, 5]: 11.67 and 7.26 and 14 | Insulin secretion (Supplemental Figure 4A; quantity not given) ([1]; Glucose (1 mM), WCDD301 1.5 µM): 17.532 and 20.466 and 12 | Insulin secretion (Supplemental Figure 4B; quantity not given) ([1]; Glucose (1 mM), WCDD301 1.5 µM): 15.67 and 15.802 and 13.5 | Insulin secretion (Supplemental Figure 4C; quantity not given) ([1]; Glucose (1 mM), WCDD301 1.5 µM): 13.328 and 14.218 and 10 | Insulin secretion (Supplemental Figure 4A; quantity not given) ([1]; Glucose (1 mM), WCDD301 3 µM): 16.564 and 14.55 and 11.5 | Insulin secretion (Supplemental Figure 4B; quantity not given) ([1]; Glucose (1 mM), WCDD301 3 µM): 18.692 and 16.896 and 14 | Insulin secretion (Supplemental Figure 4C; quantity not given) ([1]; Glucose (1 mM), WCDD301 3 µM): 12.61 and 13.59 and 9 | Insulin secretion (Supplemental Figure 4A; quantity not given) [1, 6]: 22.29 and 19.8308 and 21 | Insulin secretion (Supplemental Figure 4B; quantity not given) [1, 6]: 16.996 and 15.584 and 14.5 | Insulin secretion (Supplemental Figure 4A; quantity not given) [1, 7]: 29.994 and 17.548 and 22 | Insulin secretion (Supplemental Figure 4B; quantity not given) [1, 7]: 19.714 and 16.496 and 13 | Insulin secretion (Supplemental Figure 4A; quantity not given) ([1]; Glucose (11 mM), WCDD301 3 µM): 17.376 and 17.746 and 23 | Insulin secretion (Supplemental Figure 4B; quantity not given) ([1]; Glucose (11 mM), WCDD301 3 µM): 17.584 and 17.686 and 13 | Insulin secretion (Supplemental Figure 4C; quantity not given) ([1]; Glucose (11 mM), WCDD301 3 µM): 16.66 and 13.592 and 8.5 | half-life at 2 µM ([2]; both sexes, human, plasma): 4.82 h | Stability in human plasma versus mouse plasma ([2]; human higher than mouse): > 2.7 fold | Ln (% Remaining) ([2]; 10 min): -0.03128 | Ln (% Remaining) ([2]; 30 min): -0.148 | Ln (% Remaining) ([2]; 60 min): 0.05816 | Ln (% Remaining) ([2]; 120 min): 0.01827 | Daily urine glucose (Figure 7D) ([3]; Diabetic, WCDD301 treated, Day 10): 0 | Urine glucose, daily monitoring ([3]; diabetic WCDD301-treated mice): phenotypes similar to nondiabetic placebo-treated mice | Effect on somatostatin secretion ([4]; 1, 3 or 6 hours, Supplemental Figure 4A-C): no effect on somatostatin secretion | Somatostatin secretion (Supplemental Figure 4D; quantity not given) ([4]; WCDD301): 1740.7 and 1280.5 and 1500.0
